Reference: US9980943B2, “Methods of treating muscular dystrophy” (BOARD OF REGENTS OF THE NEVADA SYSTEM OF HIGHER EDUCATION, …, priority 2013, dated 2018)

Legend:
Format in all cases: cell-based, mouse
[1] = system: β-galactosidase in CMV-LacZ C2C12 myotubes; experiment: CMV-LacZ secondary screen in C2C12 myotubes (β-Gal stabilizing assay); details: C2C12 CMV-LacZ myotubes, fold relative to DMSO
Summary of the method: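 CMV-LacZ C2C12 line (clonal, FDG-screened); myoblasts/myotubes dosed 0.5–40 μM (0.5, 1, 5, 10, 20, 40 μM); n=2 per point; β-gal stabilization read-out.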

[2] = system: β-galactosidase in CMV-LacZ C2C12 myoblasts; experiment: CMV-LacZ secondary screen in C2C12 myoblasts (β-Gal stabilizing assay); details: CMV-LacZ C2C12 myoblasts
Summary of the method: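 β-gal stabilization was measured in C2C12 myoblasts or myotubes stably transfected with a CMV-driven LacZ construct, using the FDG β-gal assay. Compounds were tested in dose-response at 0.5, 1, 5, 10, 20 and 40 μM, with two replicates per point.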

[3] = system: α7 integrin (LacZ reporter in α7+/LacZ myotubes); experiment: Myotube α7 integrin FDG assay (Burkin assay in myotubes, 96-well); details: myotubes
[4] = system: α7 integrin (LacZ reporter in α7βgal+/− myoblasts); experiment: Myoblast α7+/LacZ integrin FDG assay (Burkin assay in myoblasts, 96-well); details: α7+/LacZ myoblasts, 96-well

| Structure (SMILES) | CMV-LACZ in Myotubes, signal relative to DMSO ([1]; 0.5 uM) | CMV-LACZ in Myotubes, signal relative to DMSO ([1]; 1 uM) | CMV-LACZ in Myotubes, signal relative to DMSO ([1]; 5 uM) | CMV-LACZ in Myotubes, signal relative to DMSO ([1]; 10 uM) | CMV-LACZ in Myotubes, signal relative to DMSO ([1]; 20 uM) | CMV-LACZ in Myotubes, signal relative to DMSO ([1]; 40 uM) | CMV-LACZ in Myoblasts (β-galactosidase activity relative to DMSO) ([2]; 0.5 uM) | CMV-LACZ in Myoblasts (β-galactosidase activity relative to DMSO) ([2]; 1 uM) | CMV-LACZ in Myoblasts (β-galactosidase activity relative to DMSO) ([2]; 5 uM) | CMV-LACZ in Myoblasts (β-galactosidase activity relative to DMSO) ([2]; 10 uM) | CMV-LACZ in Myoblasts (β-galactosidase activity relative to DMSO) ([2]; 20 uM) | CMV-LACZ in Myoblasts (β-galactosidase activity relative to DMSO) ([2]; 40 uM) | Burkin Assay in Myotubes, α7 integrin LacZ reporter signal relative to DMSO ([3]; 0.5 uM) | Burkin Assay in Myotubes, α7 integrin LacZ reporter signal relative to DMSO ([3]; 1 uM) | Burkin Assay in Myotubes, α7 integrin LacZ reporter signal relative to DMSO ([3]; 5 uM) | Burkin Assay in Myotubes, α7 integrin LacZ reporter signal relative to DMSO ([3]; 10 uM) | Burkin Assay in Myotubes, α7 integrin LacZ reporter signal relative to DMSO ([3]; 20 uM) | Burkin Assay in Myotubes, α7 integrin LacZ reporter signal relative to DMSO ([3]; 40 uM) | Burkin Assay in Myoblasts, signal relative to DMSO ([4]; 0.5 uM) | Burkin Assay in Myoblasts, signal relative to DMSO ([4]; 1 uM) | other results |
| --- | --- | --- | --- | --- | --- | --- | --- | --- | --- | --- | --- | --- | --- | --- | --- | --- | --- | --- | --- | --- | --- |
| CCCCN1CC(=O)N2Cc3[nH]c4ccccc4c3C[C@H]2C1=O [MLS001165424-01] | 0.9152 | 1.1248 | 1.0571 | 1.1758 | 1.0316 | 0.8558 | 1.1754 | 0.9796 | 1.0607 | 1.0078 | 1.2730 | 1.2074 | 0.8771 | 0.8568 | 0.8938 | 0.8315 | 0.7791 | 0.7641 | 1.152 | 1.2222 | Burkin Assay in Myoblasts, signal relative to DMSO ([4]; 5 uM): 0.9966; Burkin Assay in Myoblasts, signal relative to DMSO ([4]; 10 uM): 0.9548; Burkin Assay in Myoblasts, signal relative to DMSO ([4]; 20 uM): 1.176; Burkin Assay in Myoblasts, signal relative to DMSO ([4]; 40 uM): 1.23 |
| COc1cc(/C=C/CN2CCN(Cc3ccc(C)o3)C(CCO)C2)ccc1O (stereo not drawn) [MLS000693704-01] | 0.8571 | 0.8695 | 1.1170 | 1.0812 | 1.1647 | 1.0600 | 0.8989 | 1.1157 | 0.9522 | 0.9977 | 0.7996 | 1.0567 | 0.9315 | 1.0787 | 1.003 | 0.923 | 0.9587 | 0.8263 | 1.428 | 1.153 | Burkin Assay in Myoblasts, signal relative to DMSO ([4]; 5 uM): 1.1427; Burkin Assay in Myoblasts, signal relative to DMSO ([4]; 10 uM): 0.9418; Burkin Assay in Myoblasts, signal relative to DMSO ([4]; 20 uM): 0.8473; Burkin Assay in Myoblasts, signal relative to DMSO ([4]; 40 uM): 0.8019 |
| O=C(COc1ccc(Cl)cc1)N1CCN(C2CCCC2)CC1.O=C(O)C(=O)O [MLS001221318-01] | 1.0037 | 1.4059 | 1.1337 | 0.9944 | 1.2212 | 0.8576 | 0.8528 | 1.0538 | 1.0999 | 0.9955 | 1.0181 | 1.5641 | 1.133 | 1.082 | 0.9266 | 0.9591 | 0.8071 | 0.7186 | 1.118 | 1.283 | Burkin Assay in Myoblasts, signal relative to DMSO ([4]; 5 uM): 1.01; Burkin Assay in Myoblasts, signal relative to DMSO ([4]; 10 uM): 0.9944; Burkin Assay in Myoblasts, signal relative to DMSO ([4]; 20 uM): 1.054; Burkin Assay in Myoblasts, signal relative to DMSO ([4]; 40 uM): 1.075 |
| Cc1cccc2c(N=Nc3ccc(S(=O)(=O)Nc4ccc(Cl)cc4)cc3[N+](=O)[O-])c(O)[nH]c12 [MLS000393762-01] | 0.8653 | 0.9326 | 1.0005 | 1.0049 | 1.0800 | 1.0578 | 0.9560 | 0.9351 | 1.0114 | 1.0198 | 0.3793 | 0.4467 | 0.9402 | 0.925 | 0.9795 | 1.007 | 0.7705 | 0.7046 | 0.9738 | 0.9428 | Burkin Assay in Myoblasts, signal relative to DMSO ([4]; 5 uM): 0.7799; Burkin Assay in Myoblasts, signal relative to DMSO ([4]; 10 uM): 0.6957; Burkin Assay in Myoblasts, signal relative to DMSO ([4]; 20 uM): 0.5961; Burkin Assay in Myoblasts, signal relative to DMSO ([4]; 40 uM): 0.4696 |
| COc1ccc(N=Nc2ccc(N)nc2N)cc1 [MLS000736846-01] | 0.8438 | 0.9714 | 1.0250 | 1.1737 | 1.1000 | 1.2788 | 1.1009 | 1.0386 | 1.0269 | 1.1101 | 1.3459 | 1.0174 | 1.131 | 1.144 | 1.004 | 0.9396 | 0.8776 | 0.9673 | 1.218 | 1.2858 | Burkin Assay in Myoblasts, signal relative to DMSO ([4]; 5 uM): 1.07; Burkin Assay in Myoblasts, signal relative to DMSO ([4]; 10 uM): 1.012; Burkin Assay in Myoblasts, signal relative to DMSO ([4]; 20 uM): 1.0406; Burkin Assay in Myoblasts, signal relative to DMSO ([4]; 40 uM): 0.9563 |
